The results in this text go back to paper PMC11960969, “Mdga2 deficiency leads to an aberrant activation of BDNF/TrkB signaling that underlies autism-relevant synaptic and behavioral changes in mice” (PLOS Biology, 2025).

Assay [1] relates to mice. The experiment in a line: Open field test. Format: in vivo, mouse. The procedure:
(§1) Six- to eight-week-old male mice were subjected to various behavioral tests. Mice were allowed to acclimatize in the testing room for 1 h prior to each test. Data were recorded and analyzed using Smart 3.0 video tracking system (Panlab, Harvard Apparatus).
Mice were gently placed in the center of an open field apparatus (40 × 40 × 40 cm), and allowed for a 10-min period of free movement. Total distance traveled and time spent in center were analyzed.

Assay [2] concerns TrkB signaling (pTrkB, pAkt, pmTOR). The assay can be described thus: Immunoblotting of TrkB signaling in hippocampus / brain of treated mice. Format: in vivo, mouse. Conditions: AAV-Mdga2 shRNA mice, n = 4, Fig 6E and 6H.
The subject of assay [3] is mice. The assay can be described thus: Three-chamber test (sociability and social novelty). Format: in vivo, mouse. How it is done: as §1
This test was performed as described previously with minor modifications. The apparatus (60 W × 40 D × 22 H cm) has two transparent partitions separating the left, the middle, and the right chambers (20 × 40 cm each), and each partition has a small opening (5 × 5 cm) for access to each chamber. A fixed wire cylinder (8.5 cm diameter) was placed in each of the left and the right chambers. This test consisted of three phases: habituation, sociability test, and social novelty test. During habituation, both left and right cylinders were empty, and tested mice were placed in the center and allowed to explore freely for 10 min. During the sociability test, a gender-matched strange mouse (S1) was enclosed in one empty cylinder, and mice were allowed to freely explore for 10 min. Their time spent sniffing S1 or the other empty cylinder (E) was measured and the sociability preference index (T(S1 − -E)/T(S1 + E): time spent sniffing S1 minus time spent sniffing E over time spent sniffing both S1 and E) was calculated for comparison. During the social novelty test, another gender-matched unfamiliar mouse (S2) was placed into the empty cylinder and mice were allowed to freely explore for another 10 min. Their time spent sniffing S1 or S2 was measured and the social novelty preference index (T(S2 − S1)/T(S2 + S1): time spent sniffing S2 minus time spent sniffing S1 over time spent sniffing both S2 and S1) was calculated for comparison.

In assay [4] the test system is mice. The assay can be described thus: Novel location recognition (NLR) test. Format: in vivo, mouse. The procedure:
as §1
This test consists of habituation, training, and testing phases. Mice were first put into the open field apparatus described above for 10 min habituation. During the training phase, mice were allowed to freely explore two identical objects placed near two opposite corners of the open field arena for 8 min. Twenty-four hour later, one of the objects was moved to be close to a third corner (N: Novel location) while the other one was kept in the same spatial position (F: Familiar location). Mice were then tested for their exploration behavior with these objects for 8 min. The discrimination index (T(N − F)/T(N + F): time spent exploring the novel location minus time spent in familiar location over time spent to both novel and familiar location) was calculated to assess the recognition memory of mice.

Assay [5] has as its system mice. The experiment in a line: Self-grooming test. Format: in vivo, mouse. Conditions: Mdga2+/- mice, chronic 0.5 mg/kg i.p.; Test 1 Interaction F(1,56) = 0.1344, p = 0.7153; Test 2 F(1,56) = 0.2389, p = 0.6269. How it is done:
as §1
Tested mice were placed individually in a clean cage with fresh bedding. After 5 min of habituation, the spontaneous behaviors of mice were recorded for 30 min and their self-grooming behavior was analyzed.

Assay [6] concerns mice. The assay can be described thus: Social affiliation test. Format: in vivo, mouse. Conditions: Mdga2+/- mice. The procedure: as §1
The test procedure was similar to that described previously. Briefly, a cylinder (8.5 cm in diameter) with a gender-matched reference mouse confined was placed at a specific location in an open field (40 cm in diameter). Tested mice were allowed to move freely in the open field for 7 min and their sniffing time with the reference mice was analyzed.

In assay [7] the test system is AMPAR and NMDAR (evoked EPSCs). The experiment in a line: Evoked AMPAR- and NMDAR-mediated EPSCs and AMPAR/NMDAR ratio in hippocampal slices. Also on record: species or system mouse.

Consider `O=C(Nc1ccccc1C(=O)NC1CCCCNC1=O)c1cc2ccccc2s1` (stereo not drawn) [ANA-12, reference compound], for which the locomotor activity result in assay [1] (Mdga2+/- mice, chronic 0.5 mg/kg i.p. twice per week 3 weeks, Test 1 Interaction F(1,56) = 0.2753, p = 0.6019, Test 2 F(1,56) = 0.2774, p = 0.6005) is given as “did not affect the locomotor activity”; in assay [1] (acute: 0.5 mg/kg i.p. once daily 3 days, Test 1 Interaction F(1,56) = 0.3413, p = 0.5614, Test 2 F(1,56) = 0.1904, p = 0.6643) it was “did not affect locomotor activity”. The “elevated TrkB signaling” value in assay [2] was “reversed the elevated TrkB signaling”. Besides, in assay [3] (AAV-Mdga2 shRNA mice, ANA-12 0.5 mg/kg i.p. twice per week 3 weeks, n = 10, Fig 6D), the “impaired sociability and social novelty deficits (three-chamber)” value is “rescued impaired sociability and social novelty deficits”. For the same molecule, the sociability preference entry in assay [3] (Mdga2+/- mice, acute 0.5 mg/kg i.p. 3 days, acute Test 1: Interaction F(1,56) = 9.336, p = 0.0034) was “significantly higher sociability preference when compared to controls in acute Test 1”. Also, in assay [3] (Mdga2+/- mice, chronic 0.5 mg/kg i.p., chronic Test 1, sociability F(1,56) = 13.52, p = 0.0005, novelty F(1,56) = 3.144, p = 0.0817), the “impaired sociability and social novelty” value was “significantly improved impaired sociability and social novelty”. Besides, the impaired sociability result in assay [3] (Mdga2+/- mice, chronic 0.5 mg/kg i.p., chronic Test 2, Interaction F(1,56) = 7.339, p = 0.0089) is on record as “significantly improved impaired sociability in Mdga2^ +/− mice in chronic Test 2”. Further, in assay [4] (AAV-Mdga2 shRNA mice, S6C and S6G Fig), the impaired recognition memory result is reported as “neither ANA-12 nor the MDGA2-P2 peptide had effect on rescuing impaired recognition memory”. The impaired cognitive function entry in assay [4] (Mdga2+/- mice, acute 0.5 mg/kg i.p. 3 days, Test 1 Interaction F(1,56) = 3.941, p = 0.0520, Test 2 F(1,56) = 0.9635, p = 0.3305) is listed as “nor did it attenuate impaired cognitive function”. In addition, the recognition memory result in assay [4] (Mdga2+/- mice, chronic 0.5 mg/kg i.p. twice per week 3 weeks, Test 1 Interaction F(1,56) = 0.6210, p = 0.4340, Test 2 F(1,56) = 0.7506, p = 0.3900) is given as “did not affect the locomotor activity (Fig 5B) or recognition memory”. In assay [5], the repetitive self-grooming behavior entry is listed as “no rescuing effect on repetitive self-grooming behavior”. Moreover, in assay [6] (acute 0.5 mg/kg i.p. 3 days, acute Test 1 (1 day): Interaction F(1,56) = 7.214, p = 0.0095), the “social preference (social affiliation)” value was “significantly higher social preference compared to controls in acute Test 1”. In addition, the impaired social affiliation result in assay [6] (chronic 0.5 mg/kg i.p., Test 1 (1 week) Interaction F(1,56) = 10.07, p = 0.0024, Test 2 (5 weeks) F(1,56) = 4.906, p = 0.0309) is “significantly improved impaired social affiliation in Mdga2^ +/− mice in both chronic Test 1 and chronic Test 2”. The “elevated AMPAR/NMDAR response ratios” value in assay [7] is recorded as “effectively attenuated upon chronic ANA-12 treatment”. The “elevated evoked AMPAR-mediated EPSCs” value in assay [7] (Mdga2+/- mice, chronic 0.5 mg/kg i.p., n = 20-21 cells from 3 mice, Fig 5J) is “effectively attenuated upon chronic ANA-12 treatment”.
